The values below come from paper PMC10343686, “Integration of Hybridization Strategies in Pyridine–Urea Scaffolds for Novel Anticancer Agents: Design, Synthesis, and Mechanistic Insights” (Molecules, 2023).

Molecules are shown by their SMILES. “Also recorded” adds a separate entry of the source. Read-outs that look alike come from different tables or passages of the source.

The test system of one series is HCT116 cancer cell line. The experiment in a line: SRB assay of antiproliferative activity, HCT116. The series is classed as cell-based. Particulars: Homo sapiens, HCT-116, 48 h, mean ± standard error (n = 3). The procedure: (§1) Breast cancer cell line MCF7 and colorectal carcinoma cell line HCT116 were obtained from the National Cancer Institute (MTA Number: 2702-09). Cells were cultured in complete RPMI 1640 medium (Hyclone, Logan, UT, USA) containing 10% FBS (Hyclone, Logan, UT, USA) in an atmosphere of 5% CO 2/100% humidity at 37 °C. Each investigated compound was diluted using DMSO to make a stock solution. It was treated by mixing with cell culture medium (RPMI1640 containing 10% FBS (Hyclone, Logan, UT, USA)) so that the final concentration of the drug was 0.001, 0.01, 0.1, 1, or 10 uM. There was no compound precipitated upon treatment in the culture medium.
(§2) The SRB assay was performed following the methodology of previously published studies. In brief, the cells (100 μL medium containing 5000 HCT116 or 10,000 MCF7 cells/well) were incubated in 96-well microtiter plates. After 24 h, the drug was added (100 μL) to each well and the cultures were incubated for 48 h at 37 °C. The cells were fixed in 50% TCA (50 μL per well) for 1 h at 4 °C. The liquid was removed from the plate, which was then rinsed five times with water and allowed to dry at room temperature (RT). Washed cells were stained for 10 min at RT with 0.4% SRB (100 μL per well). After staining, the plate was washed 3 times with 1% glacial acetic acid and dried at RT. The SRB stain was then solubilized in 10 mM Tris and absorbances were read at 515 nm. The effect of the drugs was expressed in terms of the GI50 (the concentration resulting in 50% maximal inhibition of cell proliferation). […]

The subject of series [1] is MCF7 cancer cell line. The experiment in a line: SRB assay of antiproliferative activity, MCF7. Type of series: cell-based. Particulars: for GI50: Homo sapiens, MCF7, SRB assay, 48 h, mean ± standard error (n = 3). The procedure: as §1, §2
In general terms: The SRB assay estimates cell density from bound dye.

For the next series, the system named is normal cell line HEK293. The experiment in a line: SRB assay of antiproliferative activity on normal cells. The series is classed as cell-based. Particulars: HEK293, 48 h, Figure 3. The procedure: The antiproliferative activity of compounds 8a, 8h, and 8i was evaluated in a sulforhodamine B (SRB) assay using normal cell line HEK293 cells. Cells were treated for 48 h under the same conditions used for the assessment of the antiproliferative activity on the cancer cells.

Series [2] concerns MCF7 cancer cell line. Also noted: method as in PMID 35217379. Particulars: cited from earlier work.

Consider `O=C(Nc1ccccc1)Nc1cc(-c2ccc3cncnc3c2)ccn1` [Compound 4a, 1-Phenyl-3-(4-(quinazolin-7-yl)pyridin-2-yl)urea], for which the melting point fell in the range of 332 to 335 °C. In the series on HCT116 cancer cell line, this compound yielded a GI50 of over 10 µM. The compound also returned a GI50 in the series with MCF7 cancer cell line [1] of over 10 µM.
Consider `O=C(Nc1cccc(F)c1)Nc1cc(-c2ccc3cncnc3c2)ccn1` [Compound 4b, 1-(3-Fluorophenyl)-3-(4-(quinazolin-7-yl)pyridin-2-yl)urea], for which the GI50 in the series with HCT116 cancer cell line and in the series with MCF7 cancer cell line [1] was over 10 µM each time.
Consider `O=C(Nc1ccc(F)cc1)Nc1cc(-c2ccc3cncnc3c2)ccn1` [Compound 4c, 1-(4-Fluorophenyl)-3-(4-(quinazolin-7-yl)pyridin-2-yl)urea], for which the GI50 with HCT116 cancer cell line and with MCF7 cancer cell line [1] was over 10 µM throughout.
As to `COc1cccc(NC(=O)Nc2cc(-c3ccc4cncnc4c3)ccn2)c1` [Compound 4d, 1-(3-Methoxyphenyl)-3-(4-(quinazolin-7-yl)pyridin-2-yl)urea], the GI50 in the series with HCT116 cancer cell line and with MCF7 cancer cell line [1] was over 10 µM each time.
`COc1ccc(NC(=O)Nc2cc(-c3ccc4cncnc4c3)ccn2)cc1` [Compound 4e, 1-(4-Methoxyphenyl)-3-(4-(quinazolin-7-yl)pyridin-2-yl)urea]: the GI50 in the series with HCT116 cancer cell line and in the series on MCF7 cancer cell line [1] was over 10 µM throughout.
Regarding `O=C(Nc1cccc(C(F)(F)F)c1)Nc1cc(-c2ccc3cncnc3c2)ccn1` [Compound 4f, 1-(4-(Quinazolin-7-yl)pyridin-2-yl)-3-(3-(trifluoromethyl)phenyl)urea], the melting point was 328 to 331 °C. Further, the GI50 in the series with HCT116 cancer cell line is over 10 µM. The compound also showed a GI50 in the series on MCF7 cancer cell line [1] of over 10 µM.
Take `O=C(Nc1cccc(OC(F)(F)F)c1)Nc1cc(-c2ccc3cncnc3c2)ccn1` [Compound 4g, 1-(4-(Quinazolin-7-yl)pyridin-2-yl)-3-(3-(trifluoromethoxy)phenyl)urea]: the GI50 in the series on HCT116 cancer cell line and in the series on MCF7 cancer cell line [1] was over 10 µM each time.
`O=C(Nc1ccc(F)c(Cl)c1)Nc1cc(-c2ccc3cncnc3c2)ccn1` [Compound 4h, 1-(3-Chloro-4-fluorophenyl)-3-(4-(quinazolin-7-yl)pyridin-2-yl)urea] returned a melting point of 318 to 321 °C. The GI50 in the series with HCT116 cancer cell line is over 10 µM. In the series with MCF7 cancer cell line [1], this compound displayed a GI50 of over 10 µM.
Consider `C=CCNC(=O)Nc1cc(-c2ccc3cncnc3c2)ccn1` [Compound 4i, 1-Allyl-3-(4-(quinazolin-7-yl)pyridin-2-yl)urea], for which the melting point fell in the range of 190 to 193 °C. The GI50 in the series with HCT116 cancer cell line was over 10 µM. In the series with MCF7 cancer cell line [1], this compound showed a GI50 of 3.35 ± 0.101 µM.
The compound `O=C(Nc1cc(-c2ccc3cncnc3c2)ccn1)NC1CCCC1` [Compound 4j, 1-Cyclopentyl-3-(4-(quinazolin-7-yl)pyridin-2-yl)urea] registered a melting point of 223 to 226 °C. This compound also showed a GI50 with HCT116 cancer cell line of over 10 µM. In the series on MCF7 cancer cell line [1], the GI50 is over 10 µM.
In turn, `O=C(NCc1ccccc1)Nc1cc(-c2ccc3cncnc3c2)ccn1` [Compound 4k, 1-Benzyl-3-(4-(quinazolin-7-yl)pyridin-2-yl)urea] gave a melting point of 221 to 224 °C. In the series on HCT116 cancer cell line, this compound had a GI50 of over 10 µM. The compound also returned a GI50 with MCF7 cancer cell line [1] of 3.03 ± 0.061 µM.
Regarding `O=C(NCCc1ccccc1)Nc1cc(-c2ccc3cncnc3c2)ccn1` [Compound 4l, 1-Phenethyl-3-(4-(quinazolin-7-yl)pyridin-2-yl)urea], the melting point was 260 to 263 °C. The compound further returned a GI50 in the series with HCT116 cancer cell line of over 10 µM. Further, halving of growth in the series on MCF7 cancer cell line [1] (GI50) required 9 ± 0.347 µM.
In the same order, the values of `O=C(NCCc1ccccc1F)Nc1cc(-c2ccc3cncnc3c2)ccn1` [Compound 4m, 1-(2-Fluorophenethyl)-3-(4-(quinazolin-7-yl)pyridin-2-yl)urea] are 272 to 275 °C, over 10 µM and over 10 µM.
For `O=C(NCCc1ccc(F)cc1)Nc1cc(-c2ccc3cncnc3c2)ccn1` [Compound 4n, 1-(4-Fluorophenethyl)-3-(4-(quinazolin-7-yl)pyridin-2-yl)urea], the melting point was 214 to 217 °C. Moreover, the GI50 in the series with HCT116 cancer cell line was over 10 µM. In the series with MCF7 cancer cell line [1], the GI50 was over 10 µM.
Compound `COc1n[nH]c2ccc(-c3ccnc(NC(=O)Nc4ccccc4)c3)cc12` [Compound 8a, 1-(4-(3-Methoxy-1H-indazol-5-yl)pyridin-2-yl)-3-phenylurea] displayed a melting point of 218 to 221 °C. In addition, the “cell growth inhibitory effect on normal cells” value (“cell growth inhibitory effect” for short) in the series on normal cell line HEK293 is “excellent safety profiles; also recorded: low cytotoxicity”. In the series with HCT116 cancer cell line, this compound gave a GI50 of 1.19 ± 0.035 µM. The compound further showed a concentration for 50% growth inhibition (GI50) in the series with MCF7 cancer cell line [1] of 0.06 ± 0.014 µM. Also, in the series on MCF7 cancer cell line [1] (MCF7 cancer cell line, ratio of GI50 values), the “potency compared to the positive control drug Irinotecan” value is on record as 6 fold.
`COc1n[nH]c2ccc(-c3ccnc(NC(=O)Nc4cccc(F)c4)c3)cc12` [Compound 8b, 1-(3-Fluorophenyl)-3-(4-(3-methoxy-1H-indazol-5-yl)pyridin-2-yl)urea] showed a melting point of 229 to 232 °C. Further, the GI50 with HCT116 cancer cell line was over 10 µM. In the series with MCF7 cancer cell line [1], this compound returned a GI50 of over 10 µM.
As to `COc1n[nH]c2ccc(-c3ccnc(NC(=O)Nc4ccc(F)cc4)c3)cc12` [Compound 8c, 1-(4-Fluorophenyl)-3-(4-(3-methoxy-1H-indazol-5-yl)pyridin-2-yl)urea], the melting point lay within 229 to 232 °C. Also, in the series on HCT116 cancer cell line, the GI50 is 1.22 ± 0.141 µM. The GI50 in the series on MCF7 cancer cell line [1] worked out at 3.73 ± 0.075 µM.
In the same order, the values of `COc1cccc(NC(=O)Nc2cc(-c3ccc4[nH]nc(OC)c4c3)ccn2)c1` [Compound 8d, 1-(4-(3-Methoxy-1H-indazol-5-yl)pyridin-2-yl)-3-(3-methoxyphenyl)urea] are 230 to 233 °C, over 10 µM and 1.89 ± 0.26 µM.
The compound `COc1ccc(NC(=O)Nc2cc(-c3ccc4[nH]nc(OC)c4c3)ccn2)cc1` [Compound 8e, 1-(4-(3-Methoxy-1H-indazol-5-yl)pyridin-2-yl)-3-(4-methoxyphenyl)urea] gave a melting point of 240 to 242 °C. Besides, the GI50 with HCT116 cancer cell line is over 10 µM. In addition, the GI50 in the series with MCF7 cancer cell line [1] turned out to be 4.37 ± 0.359 µM.
The corresponding values for `COc1n[nH]c2ccc(-c3ccnc(NC(=O)Nc4ccc(F)c(Cl)c4)c3)cc12` [Compound 8f, 1-(3-Chloro-4-fluorophenyl)-3-(4-(3-methoxy-1H-indazol-5-yl)pyridin-2-yl)urea] are 300 to 305 °C, 0.92 ± 0.114 µM and 0.89 ± 0.209 µM.
Take `COc1n[nH]c2ccc(-c3ccnc(NC(=O)NC4CCCC4)c3)cc12` [Compound 8g, 1-Cyclopentyl-3-(4-(3-methoxy-1H-indazol-5-yl)pyridin-2-yl)urea]: the melting point fell in the range of 222 to 225 °C. Further, halving of growth in the series with HCT116 cancer cell line (GI50) required 1.25 ± 0.037 µM. This compound displayed a GI50 in the series on MCF7 cancer cell line [1] of 1.17 ± 0.059 µM.
Compound `COc1n[nH]c2ccc(-c3ccnc(NC(=O)NCc4ccccc4)c3)cc12` [Compound 8h, 1-Benzyl-3-(4-(3-methoxy-1H-indazol-5-yl)pyridin-2-yl)urea] returned a melting point of 230 to 233 °C. The “cell growth inhibitory effect” value in the series with normal cell line HEK293 is listed as “excellent safety profiles; also recorded: low cytotoxicity”. Growth in the series on HCT116 cancer cell line was halved (GI50) at 0.33 ± 0.042 µM. Also, the GI50 with MCF7 cancer cell line [1] is 0.23 ± 0.015 µM.
With `COc1n[nH]c2ccc(-c3ccnc(NC(=O)NCCc4ccccc4)c3)cc12` [Compound 8i, 1-(4-(3-Methoxy-1H-indazol-5-yl)pyridin-2-yl)-3-phenethylurea], the melting point is 200 to 203 °C. Besides, the “cell growth inhibitory effect” value with normal cell line HEK293 was “excellent safety profiles; also recorded: low cytotoxicity”. The compound further displayed a GI50 in the series on HCT116 cancer cell line of 1.08 ± 0.006 µM. The GI50 in the series with MCF7 cancer cell line [1] turned out to be 0.16 ± 0.013 µM.
The compound `COc1n[nH]c2ccc(-c3ccnc(NC(=O)NCCc4ccccc4F)c3)cc12` [Compound 8j, 1-(2-Fluorophenethyl)-3-(4-(3-methoxy-1H-indazol-5-yl)pyridin-2-yl)urea] showed a melting point of 208 to 211 °C. Further, the GI50 in the series with HCT116 cancer cell line is over 10 µM. The same compound showed a GI50 in the series on MCF7 cancer cell line [1] of 0.75 ± 0.142 µM.
In the same order, the values of `COc1n[nH]c2ccc(-c3ccnc(NC(=O)NCCc4ccc(F)cc4)c3)cc12` [Compound 8k, 1-(4-Fluorophenethyl)-3-(4-(3-methoxy-1H-indazol-5-yl)pyridin-2-yl)urea] are 209 to 212 °C, 1.38 ± 0.086 µM and 1.13 ± 0.003 µM.
In the case of `CCc1c2c(nc3ccc(OC(=O)N4CCC(N5CCCCC5)CC4)cc13)-c1cc3c(c(=O)n1C2)COC(=O)[C@]3(O)CC` [Irinotecan, reference compound], the GI50 came out at 0.62 ± 0.003 µM in the series on HCT116 cancer cell line and 0.35 ± 0.069 µM in the series on MCF7 cancer cell line [1].
In the case of `CNC(=O)c1cc(Oc2ccc(NC(=O)Nc3ccc(Cl)c(C(F)(F)F)c3)cc2)ccn1` [Sorafenib], in the series on MCF7 cancer cell line [2], the GI50 is 11.2 µM.

A word on the melting point: it is the temperature of the solid-liquid transition. For orientation: GI50 means the concentration that inhibits growth by half.
